Assay results from US20260028354A1, “TETRAHYDRONAPHTHALENE DERIVATIVES AS ESTROGEN RECEPTOR DEGRADERS” (REGENT OF THE UNIVERSITY OF MICHIGAN, priority 2022, published 2026).
Like-named read-outs stand apart in the source and are kept apart here.

Biological target: ER in MCF-7 cells (Homo sapiens (Human), UniProt P03372)
Assay: In-cell Western (ICW) ER degradation assay in MCF-7 cells
Assay type: cell-based
Settings: for DC50: MCF-7, ER degradation, read-out: MCF7 DC50
Source text: In-cell Western (ICW) assays in MCF-7 and T47D cell lines.
Day 3: After 16 hrs of compounds treatment, cells were fixed by 4% PFA and permeabilized with elution buffer (0.1% Triton X-100 in 1% PBS Solution). Subsequently, cells were blocked with Intercept (PBS) Blocking Buffer (Li-COR, Odyssey Blocking Buffer), and were stained with ER (1:500, Cell signaling) primary antibody for overnight at cold room.
Day 4: Remove the buffer, add IRDye 800CW Goat anti-Rabbit IgG Secondary Antibody (1:2000) and CellTag 700 Stain (1:500) in Intercept (PBS) Blocking Buffer. Finally, cell plate is placed in incubator to dry. Image and signal were captured on Odyssey® DLx Imaging System.

[1] = MCF7, MCF-7, maximal ER degradation, 16 hrs treatment, read-out: MCF7 Dmax
[2] = MCF7, read-out: MCF7 Dmax, MCF-7, maximal ER degradation, 16 hrs treatment

Sequence of ER in MCF-7 cells (P03372 whole entry): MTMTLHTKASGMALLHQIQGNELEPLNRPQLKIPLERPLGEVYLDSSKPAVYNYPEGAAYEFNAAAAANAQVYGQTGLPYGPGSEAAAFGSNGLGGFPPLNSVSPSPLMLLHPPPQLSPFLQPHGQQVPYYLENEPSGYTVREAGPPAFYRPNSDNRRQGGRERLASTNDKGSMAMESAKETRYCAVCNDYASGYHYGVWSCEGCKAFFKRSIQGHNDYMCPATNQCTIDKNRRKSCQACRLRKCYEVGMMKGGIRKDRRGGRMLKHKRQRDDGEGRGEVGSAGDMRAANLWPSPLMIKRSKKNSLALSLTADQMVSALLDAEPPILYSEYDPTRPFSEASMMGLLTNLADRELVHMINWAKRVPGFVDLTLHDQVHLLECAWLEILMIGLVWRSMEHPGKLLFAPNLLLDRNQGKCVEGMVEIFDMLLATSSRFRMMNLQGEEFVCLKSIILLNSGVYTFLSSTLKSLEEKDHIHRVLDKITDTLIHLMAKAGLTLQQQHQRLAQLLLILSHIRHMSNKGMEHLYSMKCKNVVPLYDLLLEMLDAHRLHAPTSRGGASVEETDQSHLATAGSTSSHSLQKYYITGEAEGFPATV

SMILES	Dmax [1] [%]	DC50 (16 hrs treatment) [µM]	Dmax [2] [%]	MCF7 Dmax (MCF-7, maximal ER degradation, 16 hrs treatment)
O=C1CC[C@H](NC(=O)c2ccc3c(n2)OC[C@H]2CN(CC4CCC5(CC4)CN(c4ccc([C@@H]6c7ccc(O)cc7CC[C@@H]6c6ccccc6)cn4)C5)CCN32)C(=O)N1 (single isomer, unassigned) [Compound A127]	50 to 75	0.001 to 0.01		
O=C1CC[C@H](N2Cc3c(ccc4c3OC[C@H]3CN(CC5COC6(CCN(c7ccc([C@H]8c9ccc(O)cc9CC[C@H]8c8ccccc8)cn7)CC6)C5)CCN43)C2=O)C(=O)N1 (single isomer, unassigned) [Compound A137]	< 25	0.001 to 0.01		
O=C1CC[C@H](N2Cc3c(ccc4c3OC[C@H]3CN(C[C@@H]5COC6(CCN(c7ccc([C@@H]8c9ccc(O)cc9CC[C@@H]8c8ccccc8)cn7)CC6)C5)CCN43)C2=O)C(=O)N1 (single isomer, unassigned) [Compound A138]	50 to 75	< 0.001		
O=C1CC[C@H](N2Cc3c(ccc4c3OC[C@H]3CN(CC5CC6(CCN(c7ncc([C@H]8c9ccc(O)cc9CC[C@H]8c8ccccc8)cn7)CC6)C5)CCN43)C2=O)C(=O)N1 (single isomer, unassigned) [Compound A139]	50 to 75	0.001 to 0.01		
O=C1CC[C@H](N2Cc3cc4c(cc3C2=O)OC[C@@H]2CN(CC3CC5(CCN(c6ncc([C@H]7c8ccc(O)cc8CC[C@H]7c7ccccc7)cn6)CC5)C3)CCN42)C(=O)N1 (single isomer, unassigned) [Compound A143]	50 to 75	0.01 to 0.1		
O=C1CC[C@H](N2Cc3cc4c(cc3C2=O)OC[C@@H]2CN(CC3CC5(CCN(c6ncc([C@@H]7c8ccc(O)cc8CC[C@@H]7c7ccccc7)cn6)CC5)C3)CCN42)C(=O)N1 (single isomer, unassigned) [Compound A144]	50 to 75	0.001 to 0.01		
O=C1CC[C@H](N2Cc3c(ccc4c3OC[C@H]3CN(CC5CC6(CCN(c7ccc([C@@H]8c9ccc(O)cc9CC[C@@H]8c8ccccc8)cc7F)CC6)C5)CCN43)C2=O)C(=O)N1 (single isomer, unassigned) [Compound A145]	50 to 75	0.01 to 0.1		
O=C1CC[C@H](N2Cc3cc4c(cc3C2=O)OC[C@@H]2CN(CC3CC5(CCN(c6ccc([C@H]7c8ccc(O)cc8CC[C@H]7c7ccccc7)cc6F)CC5)C3)CCN42)C(=O)N1 (single isomer, unassigned) [Compound A149]	> 75	0.001 to 0.01		
COc1cc(N2CC3(CCC(CN4CCN5c6ccc7c(c6OC[C@H]5C4)CN([C@H]4CCC(=O)NC4=O)C7=O)CC3)C2)c(F)cc1[C@H]1c2ccc(O)cc2CC[C@H]1c1ccccc1 (single isomer, unassigned) [Compound A165]	50 to 75	0.01 to 0.1		
COc1c([C@H]2c3ccc(O)cc3CC[C@H]2c2ccccc2)ccc(N2CCC(CN3CCN4c5cc6c(cc5OC[C@@H]4C3)C(=O)N([C@H]3CCC(=O)NC3=O)C6)CC2)c1F (single isomer, unassigned) [Compound A170]	25 to 50	0.01 to 0.1		
COc1c([C@@H]2c3ccc(O)cc3CC[C@@H]2c2ccccc2)ccc(N2CCC(CN3CCN4c5cc6c(cc5OC[C@@H]4C3)C(=O)N([C@H]3CCC(=O)NC3=O)C6)CC2)c1F (single isomer, unassigned) [Compound A171]	> 75	< 0.001		
O=C1CC[C@H](N2Cc3cc4c(cc3C2=O)OCC42CCN(CC3CCC4(CC3)CN(c3ccc([C@@H]5c6ccc(O)cc6CC[C@@H]5c5ccccc5)cn3)C4)CC2)C(=O)N1 [Compound A128, (S)-3-(1′-((2-(5-((1S,2S)-6-hydroxy-2-phenyl-1,2,3,4-tetrahydronaphthalen-1-yl)pyridin-2-yl)-2-azaspiro[3.5]nonan-7-yl)methyl)-7-oxo-5,7-dihydro-2H,6H-spiro[furo[2,3-f]isoindole-3,4′-piperidin]-6-yl)piperidine-2,6-dione]		0.001 to 0.01	50 to 75	
O=C1CC[C@H](N2Cc3cc4c(cc3C2=O)OC[C@@H]2CN(CC3CCC5(CC3)CN(c3ccc([C@@H]6c7ccc(O)cc7CC[C@@H]6c6ccccc6)cn3)C5)CCN42)C(=O)N1 [Compound A130, (S)-3-((S)-3-((2-(5-((1S,2S)-6-hydroxy-2-phenyl-1,2,3,4-tetrahydronaphthalen-1-yl)pyridin-2-yl)-2-azaspiro[3.5]nonan-7-yl)methyl)-8-oxo-1,2,3,4,4a,5,8,10-octahydro-9H-pyrazino[1′,2′:4,5][1,4]oxazino[2,3-f]isoindol-9-yl)piperidine-2,6-dione]		0.001 to 0.01		A (“A”: >=75%)
O=C1CC[C@H](N2Cc3c(ccc4c3OCC43CCN(CC4CC5(CCN(c6ccc([C@@H]7c8ccc(O)cc8CC[C@@H]7c7ccccc7)cc6F)CC5)C4)CC3)C2=O)C(=O)N1 [Compound A146, (S)-3-(1′-((7-(2-fluoro-4-((1R,2S)-6-hydroxy-2-phenyl-1,2,3,4-tetrahydronaphthalen-1-yl)phenyl)-7-azaspiro[3.5]nonan-2-yl)methyl)-6-oxo-6,8-dihydro-2H,7H-spiro[furo[2,3-e]isoindole-3,4′-piperidin]-7-yl)piperidine-2,6-dione]		0.01 to 0.1	25 to 50	
COc1cc(N2CCC3(CC2)CC(CN2CCC4(CC2)COc2cc5c(cc24)CN([C@H]2CCC(=O)NC2=O)C5=O)C3)ccc1[C@@H]1c2ccc(O)cc2CC[C@@H]1c1ccccc1 [Compound A162, (S)-3-(1′-((7-(4-((1S,2S)-6-hydroxy-2-phenyl-1,2,3,4-tetrahydronaphthalen-1-yl)-3-methoxyphenyl)-7-azaspiro [3.5]nonan-2-yl)methyl)-7-oxo-5,7-dihydro-2H,6H-spiro[furo [2,3-f]isoindole-3,4′-piperidin]-6-yl)piperidine-2,6-dione]		< 0.001	25 to 50	
COc1cc(N2CC3(CCC(CN4CCC5(CC4)COc4cc6c(cc45)CN([C@H]4CCC(=O)NC4=O)C6=O)CC3)C2)c(F)cc1[C@@H]1c2ccc(O)cc2CC[C@@H]1c1ccccc1 [Compound A167, (S)-3-(1′-((2-(2-fluoro-4-((1S, 2S)-6-hydroxy-2-phenyl-1,2,3,4-tetrahydronaphthalen-1-yl)-5-methoxyphenyl)-2-aza-spiro[3.5]nonan-7-yl)methyl)-7-oxo-5,7-dihydro-2H,6H-spiro [furo[2,3-f]isoindole-3,4′-piper-idin]-6-yl)piperidine-2,6-dione]		< 0.001	50 to 75	
COc1cc(N2CC3(CCC(CN4CCC5(CC4)COc4c5ccc5c4CN([C@H]4CCC(=O)NC4=O)C5=O)CC3)C2)c(F)cc1[C@H]1c2ccc(O)cc2CC[C@H]1c1ccccc1 [Compound A168, (S)-3-(1′-((2-(2-fluoro-4-((1R,2R)-6-hydroxy-2-phenyl-1,2,3,4-tetrahydronaphthalen-1-yl)-5-methoxyphenyl)-2-azaspiro[3.5]nonan-7-yl)methyl)-6-oxo-6,8-dihydro-2H,7H-spiro[furo[2,3-e]isoindole-3,4′-piperidin]-7-yl)piperidine-2,6-dione]		0.001 to 0.01	50 to 75	
COc1cc(N2CC3(CCC(CN4CCN5c6cc7c(cc6OC[C@@H]5C4)C(=O)N([C@H]4CCC(=O)NC4=O)C7)CC3)C2)c(F)cc1[C@H]1c2ccc(O)cc2CC[C@H]1c1ccccc1 [Compound A169, (S)-3-((S)-3-((2-(2-fluoro-4-((1R,2R)-6-hydroxy-2-phenyl-1,2,3,4-tetrahydronaphthalen-1-yl)-5-methoxyphenyl)-2-azaspiro[3.5]nonan-7-yl)methyl)-8-oxo-1,2,3,4,4a,5,8,10-octahydro-9H-pyrazino[1′,2′: 4,5][1,4]oxazino[2,3-f]isoindol-9-yl)piperidine-2,6-dione]	25 to 50	0.01 to 0.1		
COc1cc(N2CC3(CCC(CN4CCC5(CC4)COc4cc6c(cc45)CN([C@H]4CCC(=O)NC4=O)C6=O)CC3)C2)c(F)cc1[C@H]1c2ccc(O)cc2CC[C@H]1c1ccccc1 [Compound A172, (S)-3-(1′-((2-(2-fluoro-4-((1R,2R)-6-hydroxy-2-phenyl-1,2,3,4-tetrahydronaphthalen-1-yl)-5-methoxyphenyl)-2-azaspiro[3.5]nonan-7-yl)methyl)-7-oxo-5,7-dihydro-2H,6H-spiro[furo[2,3-f]isoindole-3,4′-piperidin]-6-yl)piperidine-2,6-dione]		0.01 to 0.1	25 to 50	
O=C1CC[C@H](N2Cc3cc4c(cc3C2=O)OCC42CCN(CC3CC4(CCN(c5ccc([C@@H]6c7ccc(O)cc7CC[C@@H]6c6ccccc6)cc5)CC4)C3)CC2)C(=O)N1 [Compound A182, (S)-3-(1′-((7-(4-((1R,2S)-6-hydroxy-2-phenyl-1,2,3,4-tetra-hydronaphthalen-1-yl)phenyl)-7-azaspiro[3.5]nonan-2-yl)-methyl)-7-oxo-5,7-dihydro-2H, 6H-spiro[furo[2,3-f]isoindole-3,4′-piperidin]-6-yl)piperidine-2,6-dione]		< 0.001	50 to 75	
O=C1CC[C@H](N2Cc3c(ccc4c3OCC43CCN(CCCOC4CN(c5ccc([C@@H]6c7ccc(O)cc7CC[C@@H]6c6ccccc6)cc5)C4)CC3)C2=O)C(=O)N1 [Compound A183, (S)-3-(1′-(3-((1-(4-((1R,2S)-6-hydroxy-2-phenyl-1,2,3,4-tetra-hydronaphthalen-1-yl)phenyl)-azetidin-3-yl)oxy)propyl)-6-oxo-6,8-dihydro-2H,7H-spiro [furo[2,3-e]isoindole-3,4′-piperidin]-7-yl)piperidine-2,6-dione]		< 0.001	50 to 75	
